These results are taken from patent US20130190404A1, “CRYSTALS OF CARBOPROST TROMETHAMINE AND THE PREPARATION METHOD AS WELL AS THE USES THEREOF” (SHANGHAI TECHWELL BIOPHARMACEUTICAL CO., LTD., priority 2010, published 2013).

The data set can be described thus: Purity and stability test: content of impurities by HPLC after sealed storage at 25° C. for 7 days. It is filed as physicochemical. The conditions noted are these: for Content of impurities after stored at 25° C. for 7 days: sealed storage; for Content of impurities after stored at 25° C. for 7 days / Initial content of impurities: HPLC; for Initial content of impurities: before storage (baseline of the stability test). How it is done: In the following examples, high performance liquid chromatography (HPLC) method (European Pharmacopoeia) used for detecting the purity of the crystal of arboprost tromethamine obtained are listed as follows:
Stationary phase: silica gel, particle size 5-μm
Mobile phase: acetonitrile:aqueous Sodium Dihydrogen Phosphate (pH=2.5)=23:77 (V/V)
Column temperature: 35° C.
Detection wavelength: 200 nm
In the present example, the samples from the comparative-example and examples were test for purity and stability. The method for testing is described as follows:
The samples from comparative-example 1, example 2 and example 4 were obtained and kept at 25° C. for 7 days in sealed storage. And then the content of impurities in each sample was tested.

For `CCCCC[C@](C)(O)/C=C/[C@@H]1[C@@H](C/C=C\CCCC(=O)O)[C@@H](O)C[C@H]1O` [Example 2, carboprost tromethamine], the “Content of impurities after stored at 25° C. for 7 days” value (“Content of impurities after stored” for short) amounted to 0.3% and the “Initial content of impurities” value was 0.3%.
Regarding `CCCCC[C@](C)(O)/C=C/[C@@H]1[C@@H](C/C=C\CCCC(=O)O)[C@@H](O)C[C@H]1O` [Example 4, carboprost tromethamine], the “Content of impurities after stored” value is 0.2% and the “Initial content of impurities” value is reported as 0.2%.
Turning to `CCCCC[C@](C)(O)/C=C/[C@@H]1[C@@H](C/C=C\CCCC(=O)O)[C@@H](O)C[C@H]1O` [compound 1, carboprost tromethamine], the “Content of impurities after stored” value came to 4.0% and the “Initial content of impurities” value is on record as 0.5%.
For `CCCCC[C@](C)(O)/C=C/[C@@H]1[C@@H](C/C=C\CCCC(=O)O)[C@@H](O)C[C@H]1O` [crystal of carboprost tromethamine, 2-amino-2-(hydroxymethyl)propan-1,3-diol(5Z)-7-[(1R,2R,3R,5S)-3,5-dihydroxy-2-[(1E,3S)-3-hydroxy-3-methyl-1-octene]cyclopentyl]-5-heptylic acid], for the setting “after stored for a long time, conclusion from the table”, the “stability after storage (in words)” value is given as “excellent stability”.
